Laboratory results reported in ChEMBL document CHEMBL1201862, “PubChem BioAssay data set” (2004).
Active and inactive are the calls of the source.

Tests used:
cells [1] = type: functional, cell-based
cells [2] = type: functional, cell-based; remark: listed apart in the source
[3] = biological target: T1, Trace amine-associated receptor 1 (Homo sapiens, UniProt Q96RJ0); assay: Counterscreen for agonists of the human trace amine associated receptor 1 (hTAAR1): Fluorescence-based cell-based high throughput dose response assay to identify hTAAR1 agonist that also desensitize TAAR1 receptor response.; type: functional
T1 sequence (Q96RJ0 whole entry): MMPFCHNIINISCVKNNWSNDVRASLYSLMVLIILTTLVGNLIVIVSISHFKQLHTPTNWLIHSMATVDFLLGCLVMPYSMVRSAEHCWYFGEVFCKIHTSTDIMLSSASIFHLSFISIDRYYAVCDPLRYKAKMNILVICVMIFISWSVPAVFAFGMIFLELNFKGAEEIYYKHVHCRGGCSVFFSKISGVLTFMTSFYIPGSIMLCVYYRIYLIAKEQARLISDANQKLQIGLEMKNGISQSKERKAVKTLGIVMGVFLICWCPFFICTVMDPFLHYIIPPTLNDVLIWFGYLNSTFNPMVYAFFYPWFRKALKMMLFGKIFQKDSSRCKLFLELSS

[4] = biological target: T1, Trace amine-associated receptor 1; assay: Fluorescence-based cell-based high throughput dose response assay to identify agonists of the human trace amine associated receptor 1 (TAAR1).; type: functional
[5] = viability loss in A549 lung cancer cells – cell-based, cherry-picks, […], cytotoxicity control, dose response (AID 1053119); type: functional
[6] = cervical cancer cell viability loss – HeLa, 24 h, plate reader, powder samples, set 3, cytotoxicity control, dose response (AID 651864); type: functional, cell-based
[7] = biological target: E3 ubiquitin-protein ligase UHRF1 (Homo sapiens, UniProt Q96T88); assay: Counterscreen for inhibitors of 5-meCpG-binding domain protein 2 (MBD2): TRFRET-based biochemical high throughput dose response assay to identify inhibitors of binding of ubiquitin-like with PHD and ring finger domains 1 (UHRF1) to methylated oligonucleotide.
Chain of E3 ubiquitin-protein ligase UHRF1 (Q96T88 whole entry, the tested form may be a part): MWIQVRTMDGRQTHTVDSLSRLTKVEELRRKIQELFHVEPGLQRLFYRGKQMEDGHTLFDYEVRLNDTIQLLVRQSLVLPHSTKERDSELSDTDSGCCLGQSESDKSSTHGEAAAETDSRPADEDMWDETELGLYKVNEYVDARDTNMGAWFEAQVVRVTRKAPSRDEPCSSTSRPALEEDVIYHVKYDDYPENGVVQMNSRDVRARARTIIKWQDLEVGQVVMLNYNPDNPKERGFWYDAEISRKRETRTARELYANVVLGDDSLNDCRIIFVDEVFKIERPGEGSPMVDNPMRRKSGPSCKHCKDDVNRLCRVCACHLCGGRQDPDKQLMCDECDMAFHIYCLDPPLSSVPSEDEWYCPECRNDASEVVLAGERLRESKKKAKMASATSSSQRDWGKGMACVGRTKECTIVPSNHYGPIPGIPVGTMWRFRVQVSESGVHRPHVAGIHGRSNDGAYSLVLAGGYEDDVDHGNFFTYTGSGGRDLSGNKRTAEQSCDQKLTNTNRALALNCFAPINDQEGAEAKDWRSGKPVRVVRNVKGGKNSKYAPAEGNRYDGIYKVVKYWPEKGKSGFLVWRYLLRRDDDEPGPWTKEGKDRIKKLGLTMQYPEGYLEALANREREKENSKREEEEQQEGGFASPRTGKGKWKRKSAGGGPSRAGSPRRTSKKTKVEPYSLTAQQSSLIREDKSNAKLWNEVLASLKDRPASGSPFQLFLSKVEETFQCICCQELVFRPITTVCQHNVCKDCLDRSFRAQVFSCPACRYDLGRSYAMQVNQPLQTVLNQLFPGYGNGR

[8] = PAX5 cellular inhibition readout – cell-based, plate reader, dry powder samples, selectivity assay for PAX8 inhibitor project, dose response (AID 743047); type: functional;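 further: HEK293 cells carrying a Pax5 driven CD19 promoter luciferase reporter; potency of inhibitors that lower reporter luminescence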
[9] = COV434 cell viability loss – plate reader, dry powder, SA7, cytotoxicity control for PAX8 inhibitor project, dose response (AID 743145); type: functional, cell-based
[10] = PAX8-dependent cell viability loss – plate reader, dry powder, dose response (AID 743049); type: functional, cell-based
[11] = OVCAR4 cell viability loss – plate reader, dry powder, SA11, cytotoxicity control for PAX8 inhibitor project, dose response (AID 743150); type: functional, cell-based; settings: OVCAR-4
[12] = luciferase reporter signal suppression in cells – H4 neuroglioma cells, luminescence, dose response (AID 1990); type: functional, cell-based
[13] = A2780 cell killing – plate reader, dry powder samples, cytotoxicity control, dose response (AID 743046); type: functional, cell-based
[14] = OVCAR-3 cell viability loss – plate reader, dry powder samples, PAX8 inhibitor project, dose response (AID 743044); type: functional, cell-based
[15] = COV362 cell viability loss – plate reader, dry powder, SA12, cytotoxicity control for PAX8 inhibitor project, dose response (AID 743144); type: functional, cell-based
[16] = toxicity toward immortalized ovarian surface epithelium – cell-based, plate reader, dry powder samples, cytotoxicity control for PAX8 inhibitor project, dose response (AID 743045); type: functional
[17] = Luminescence Cell-Based Dose Response HTS to Identify Inhibitors of 5'UTR Stem-Loop Driven Prion Protein mRNA Translation in H4 Neuroglioblastoma Cells. [Related pubchem assays: 1827 (Project Summary), 1813 (Primary HTS)]; type: functional
[18] = inhibitors acting on PAX2 in cells – cell-based, plate reader, dry powder samples, selectivity assay for PAX8 inhibitor project, dose response (AID 743048); type: functional;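 further: HEK293 cells carrying a WT1 promoter luciferase reporter driven by expressed Pax2; potency is for inhibition of Pax2 driven reporter signal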
BJ [19] = assay: growth inhibition of engineered Ras-driven BJ cells – cell-based, alamar blue fluorescence, cherrypicked samples, dose response (AID 2631); type: functional; settings: Homo sapiens;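 further: confirmatory dose-response assay in RAS-dependent BJ fibroblasts engineered with TERT, LT and ST, with cytotoxicity read by fluorescence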
Paired box protein Pax-8 = Paired box protein Pax-8 (Homo sapiens, UniProt Q06710); assay: PAX8 transcriptional activity inhibition in RMG-I – RMG-I cells, luciferase, cherry-pick, dose response (AID 687027); type: functional, cell-based;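 further: luciferase reporter driven by Pax8 target thyroperoxidase promoter measured by SteadyGlo luminescence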
Chain of Paired box protein Pax-8 (Q06710 whole entry): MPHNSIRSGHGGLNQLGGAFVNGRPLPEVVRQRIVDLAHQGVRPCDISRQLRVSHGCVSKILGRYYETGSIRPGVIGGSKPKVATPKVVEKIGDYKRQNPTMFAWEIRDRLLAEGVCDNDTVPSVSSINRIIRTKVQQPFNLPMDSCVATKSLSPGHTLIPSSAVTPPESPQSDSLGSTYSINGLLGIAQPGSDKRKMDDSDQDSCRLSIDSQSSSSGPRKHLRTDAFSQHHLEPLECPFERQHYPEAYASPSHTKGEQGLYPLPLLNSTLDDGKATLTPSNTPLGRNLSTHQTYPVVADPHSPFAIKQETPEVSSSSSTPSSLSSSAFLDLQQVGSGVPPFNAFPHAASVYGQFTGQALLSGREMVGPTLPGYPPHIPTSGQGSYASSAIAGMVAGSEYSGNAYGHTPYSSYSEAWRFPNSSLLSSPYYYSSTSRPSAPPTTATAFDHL

[20] = OV-90 cell viability loss – plate reader, dry powder, SA8, PAX8 inhibitor project, dose response (AID 743149); type: functional, cell-based
BJ [21] = assay: BJ-TERT-LT-ST fibroblast viability loss – cell-based, RAS-independent, luminescence, dose response (AID 1935); type: functional; settings: Homo sapiens;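 further: BJ fibroblasts immortalized with TERT plus LT and ST oncogenes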
BJ [22] = assay: BJ-TERT fibroblast viability loss – cell-based, RAS-independent, luminescence, dose response (AID 1933); type: functional; settings: Homo sapiens
[23] = Luminescence-based dose response cell-based high throughput screening assay for cytotoxic compounds using the IEC-6 intestinal epithelial cell line. [Related pubchem assays: 1858 (Summary AID.), 1825 (Counterscreen.), 1907 (Confirmation screen.)]; type: functional
[24] = alpha-synuclein stem-loop luciferase translation blockers – H4 neuroglioma cells, luminescence, confirmation (AID 1988); type: functional, cell-based
[25] = IGROV1 cell killing – plate reader, dry powder samples, PAX8 inhibitor project, dose response (AID 743043); type: functional, cell-based; settings: IGROV-1
[26] = DRD fibroblast viability loss – cell-based, non-viral oncogenic, luminescence, dose response (AID 1934); type: functional; settings: Homo sapiens
BJ [27] = assay: cells; type: functional, cell-based; settings: Homo sapiens
BHK-21 = assay: viability loss in BHK-21 cells – cell-based, plate reader, cherry-pick samples, cytotoxicity control, dose response (AID 687030); type: functional; settings: Mesocricetus auratus
A549 = assay: viability loss in A549 cells – cell-based, plate reader, cherry-pick samples, cytotoxicity control, dose response (AID 687028); type: functional; settings: Homo sapiens
Vero = assay: viability loss in Vero cells – cell-based, plate reader, cherry-pick samples, cytotoxicity control, dose response (AID 687020); type: functional; settings: Chlorocebus sabaeus
[28] = kidney cell line viability loss – HEK293T, luminescence plate reader, powder samples, set 4, cytotoxicity control, dose response (AID 651863); type: functional, cell-based; settings: HEK293
[29] = Vero E6 cell cytotoxicity, dose response, cytotoxicity control for non-replicating M. tuberculosis project, secondary assay (AID 492998); type: functional, VeroE6; settings: Vero C1008
[30] = biological target: T2, Eukaryotic translation initiation factor 2-alpha kinase 3 (Homo sapiens, UniProt Q9NZJ5); assay: Counterscreen assay for PERK inhibitors: Dose response cell-based high throughput screening assay to measure inhibition of PERK at 6 hours. [Related pubchem assays: 1522, 1416 ]; type: functional
T2 sequence (Q9NZJ5 whole entry): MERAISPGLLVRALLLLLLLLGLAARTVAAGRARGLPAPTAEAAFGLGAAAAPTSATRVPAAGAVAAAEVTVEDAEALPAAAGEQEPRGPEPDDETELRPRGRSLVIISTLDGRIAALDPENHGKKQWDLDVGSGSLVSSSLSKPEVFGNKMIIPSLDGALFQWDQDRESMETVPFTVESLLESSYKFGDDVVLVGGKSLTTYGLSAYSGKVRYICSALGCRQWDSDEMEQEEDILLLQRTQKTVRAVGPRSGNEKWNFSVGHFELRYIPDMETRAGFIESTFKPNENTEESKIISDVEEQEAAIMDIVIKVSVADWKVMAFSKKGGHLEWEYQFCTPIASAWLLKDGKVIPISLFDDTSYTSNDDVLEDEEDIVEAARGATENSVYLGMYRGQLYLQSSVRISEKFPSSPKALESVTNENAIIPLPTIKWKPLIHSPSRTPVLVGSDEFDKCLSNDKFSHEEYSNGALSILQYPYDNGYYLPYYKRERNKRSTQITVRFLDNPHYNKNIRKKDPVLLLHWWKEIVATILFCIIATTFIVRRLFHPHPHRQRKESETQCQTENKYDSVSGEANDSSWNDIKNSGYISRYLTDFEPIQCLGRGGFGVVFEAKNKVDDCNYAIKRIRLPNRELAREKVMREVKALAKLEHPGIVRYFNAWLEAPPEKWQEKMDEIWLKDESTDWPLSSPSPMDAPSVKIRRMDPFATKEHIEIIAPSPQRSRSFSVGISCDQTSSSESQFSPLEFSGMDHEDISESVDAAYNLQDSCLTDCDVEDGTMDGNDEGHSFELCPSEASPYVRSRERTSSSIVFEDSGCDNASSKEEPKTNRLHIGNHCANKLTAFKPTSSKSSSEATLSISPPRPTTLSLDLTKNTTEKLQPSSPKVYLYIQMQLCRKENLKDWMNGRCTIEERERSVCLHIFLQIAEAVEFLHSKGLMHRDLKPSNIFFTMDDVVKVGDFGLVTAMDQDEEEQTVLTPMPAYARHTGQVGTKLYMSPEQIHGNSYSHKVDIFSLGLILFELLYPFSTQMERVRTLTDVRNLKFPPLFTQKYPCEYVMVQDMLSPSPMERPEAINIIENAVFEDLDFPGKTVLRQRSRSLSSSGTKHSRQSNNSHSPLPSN

cells [31] = type: functional
[32] = microbe, parasite or virus in culture; type: functional; settings: Mycobacterium tuberculosis
[33] = HEK-293T viability loss, compound-treated – cell-based, uHTS hits, cytotoxicity control for B/T-cell NF-kB inhibitor project, dose response (AID 489019); type: functional;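 further: IC50 reflects cytotoxicity as loss of cell viability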
[34] = THP-1 cell cytotoxicity, dose response, cytotoxicity control for non-replicating M. tuberculosis project (AID 489025); type: functional
[35] = HepG2 cell cytotoxicity, dose response, cytotoxicity control for non-replicating M. tuberculosis project (AID 489018); type: functional; settings: Mycobacterium tuberculosis
[36] = biological target: T2, Eukaryotic translation initiation factor 2-alpha kinase 3; assay: Dose response cell-based high-throughput screening assay to measure PERK inhibition. [Related pubchem assays: 1416 ]; type: functional
[37] = reduced cellular PGC1a acetyl-lysine signal – cell-based, cherry-picked samples, dose response (AID 720514); type: functional;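 further: potency may reflect raised or lowered acetylation signal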
Jurkat = assay: blockers of NF-kB activation in T cells – Jurkat, luciferase reporter, luminescence, B- and T-cell, dose response (AID 489004); type: functional, cell-based; settings: Homo sapiens;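 further: NF-kB luciferase reporter Jurkat cells stimulated with PMA plus ionomycin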
SN12K1 = assay: cells; type: functional; settings: Homo sapiens
P388 = assay: cells; type: functional; settings: Mus musculus
P388/ADR = assay: cells; type: functional; settings: Mus musculus

SMILES: O=C(CSC1=Nc2ccc(F)cc2S(=O)(=O)N1)NCCc1ccccc1
- IC50 (cells [1]): > 29.9 µM (inactive)
- EC50 (cells [2]): > 29.9 µM (inactive)
- IC50 [3]: 3.52 µM (active)
- EC50 [4]: 0.621 µM (active)

SMILES: O=C(CN1CCCC1)Nc1ccc(Oc2ccc(NC(=O)CN3CCCC3)cc2)cc1
- AC50 [5]: > 52 µM (inactive)

SMILES: O=C(Cc1ccc(-c2ccccc2)cc1)NC1CCCCC1
- AC50 [6]: 109 µM (active)

SMILES: NC1=C(c2nc3ccccc3s2)C(=O)CN1NC(=O)c1c[nH]c2ccccc12
- IC50 [7]: > 43.8 µM (inactive)

SMILES: CCN(CC)c1ccc2c(cc1=O)[C@@H](NC)CCc1cc(OC)c(OC)c(OC)c1-2
- AC50 [8]: 2.89 µM (active)
- AC50 [9]: 3.45 µM (active)
- AC50 [10]: 6.61 µM (active)
- AC50 [11]: 3.39 µM (active)
- EC50 [12]: 1.03 µM (active)
- AC50 [13]: 11.7 µM (active)
- AC50 [14]: 7.15 µM (active)
- AC50 [15]: 2.73 µM (active)
- AC50 [16]: 6.57 µM (active)
- EC50 [17]: 0.684 µM (active)
- AC50 [18]: 5.95 µM (active)
- EC50 (BJ [19]): 0.343 µM (active)
- AC50 (Paired box protein Pax-8): 2.9 µM (active)
- AC50 [20]: 1.63 µM (active)
- EC50 (BJ [21]): 1.07 µM (inconclusive)
- EC50 (BJ [22]): 1.62 µM (active)
- IC50 [23]: 1.49 µM (active)
- EC50 [24]: 0.35 µM (active)
- AC50 [25]: 5.6 µM (active)
- EC50 [26]: 0.953 µM (active)
- EC50 (BJ [27]): 1.36 µM (inconclusive)

SMILES: CCCCN(C(C)=O)c1ccc2c(c1)C1CC2CCN1Cc1ccccc1 (stereo not given)
- AC50 (BHK-21): 33.7 µM (active)
- AC50 (A549): 30.3 µM (active)
- AC50 (Vero): 30.5 µM (active)

SMILES: O=C(O)C1CCCCC1C(=O)N1CCc2ccccc2C1CN1C(=O)[C@H]2CCCC[C@H]2C1=O (stereo not given in full)
- AC50 [28]: > 52 µM (inactive)

SMILES: COc1cccc2c1C(CO)N1C(C#N)C3CC(C(=O)O)C(C1C2)N3C (stereo not given)
- CC50 [29]: 0.33 µM (active)
- EC50 [30]: > 55.7 µM (not active)
- IC50 (cells [31]): 2.76 µM (active)
- CC50 [32]: 0.194 µM (active)
- IC50 [33]: > 80 µM (inactive)
- CC50 [34]: 0.153 µM (active)
- CC50 [35]: 0.925 µM (active)
- EC50 [36]: > 55.7 µM (not active)
- AC50 [37]: 20.1 µM (active)
- IC50 (Jurkat): 0.34 µM (active)
- GI50 (SN12K1): 0.243 µM (active)
- GI50 (P388): 0.416 µM (active)
- GI50 (P388/ADR): < 0.0384 µM (active)
